A melting point compilation (Tetko et al.; mined from patent text by program, amines drawn as free bases though some values may be those of a salt)

melting point [°C] | Compound
117 to 119 | CC(C)c1cc(CCC(=O)O)n(Cc2ccc(C(F)(F)F)cc2Cl)n1
181 to 182 | CNc1nc(Cl)nc2c1ncn2C1CC(F)C(CO)O1 (centres undefined)
231 to 232 | CCOC(=O)c1cnc(=O)n2c1sc1cc(OC)ccc12
105 to 106 | CCOC(=O)CC(=O)c1cc(F)c(S(=O)c2ccccc2)nc1Nc1ccc(F)cc1F (centres undefined)
121 to 122 | COC(=O)c1cc(-c2nnn(C)n2)c(C(=O)OC)s1
229 to 231 | Cc1nc2c(s1)-c1nc(NC(=O)c3ccccc3)ncc1CC2
88 to 89 | COC(=O)c1sc(C)c(N)c1C
92 to 93 | CCOC(=O)c1sc(C)nc1OCCCc1cc(OC(C)C)nn1Cc1ccc(Cl)cc1Cl
91 to 93 | Cc1cccc(Cl)c1NS(=O)(=O)c1nc2sccn2n1
141 to 144 | CNC(=S)C1=CC(C)(CF)Oc2ccc([N+](=O)[O-])cc21 (centres undefined)
125 to 135 | Cn1cnc2c1c(=O)n(CCCCC(=O)CBr)c(=O)n2C
62 | CCOC(=O)c1cnc2onc(C)c2c1OCC
182 to 184 | CC(=O)NC[C@H]1CN(c2ccc(C3=CCOCC3)cc2)C(=O)O1
225 to 226 | O=C(O)COc1cccc(-n2nc(-c3ccc(F)cc3)c3cccnc32)c1
295 | COC(=O)C1=C(C)Nc2cc[nH]c(=O)c2C1c1ccccc1C(F)(F)F (centres undefined)
136 to 137 | COc1cc(CCCC2OC(=O)NC2=O)ccc1OCc1csc(CCc2ccccc2)n1 (centres undefined)
183 to 184 | Cn1nc2nnsc2c1C(N)=O
254 to 255 | CNS(=O)(=O)c1cnc2c(OC)c(OC)c(OC)cc2c1O
253 to 254 | COc1cc(Cc2cnc(N)nc2N)cc2c1OC(C)(C)C=C2c1cccc([N+](=O)[O-])c1

melting point [°C] | Compound
116 to 117 | C#CCn1c(C)c(C)c2cnnc(OCc3ccccc3)c21
120 to 122 | CC(C)(CO)C(O)C(=O)NCc1cccnc1 (centres undefined)
96 to 98 | CC(C)(C)OC(=O)N1CC=C(c2ccc(N)cc2F)CC1
162 | Cc1ccc(S(=O)(=O)OCC2OC(n3ccc(=O)[nH]c3=O)CC2O)cc1 (centres undefined)
27 to 29 | CC(=O)c1ccc(Cc2ccc(F)cc2)o1
136 to 140 | CCOC(=O)COc1ccc(-c2ccc(Cl)c(C(=O)NCC34CC5CC(CC(C5)C3)C4)c2)cc1
202 | COC(=O)c1ccc2cc(-c3ccc(OCCCO)c(C45CC6CC(CC(C6)C4)C5)c3)ccc2c1
254 to 257 | COCCn1nc2c(N)nc3ncccc3c2c1CC(C)(C)C(N)=O
80 to 85 | CC(C)NC1C(n2cccn2)=NNN1S (centres undefined)
190 to 195 | CC1(C)C(N)CN1c1nc2c(cc1F)c(=O)c(C(=O)O)cn2C1CC1 (centres undefined)
191 to 192 | CNS(=O)(=O)c1ccc(Nc2cc(N3CCCCC3)cc(-c3ccc(F)cc3)n2)cc1
106 | CC(=O)N1C(=O)OC[C@@H]1Cc1ccccc1
193 to 194 | COc1cc(COc2nn(-c3ccccc3)cc2C=O)ccc1OCc1nc(-c2cccc(O)c2)oc1C
229 to 230 | CCn1cc(C(=O)O)c(=O)c2c(F)c(F)c(F)c(F)c21
210 to 212 | O=C(O)Cc1c(C(=O)c2cc(CO)ccn2)[nH]c2cc(Cl)ccc12
139 to 140 | NC(=O)c1cc(Cl)cc(-c2cccc3cc(Cc4cccc(C(F)(F)F)c4)sc23)c1
151 to 152 | COc1ccc(CCN2CCC(N3CCc4ccc(CNC(C)=O)cc43)CC2)cc1
161 to 163 | FC(Cc1ccc(Cl)cc1)(Cn1cncn1)Cn1cncn1
238 to 240 | O=c1[nH]c2ncc(-c3cn[nH]c3)nc2n1CC1CCOCC1

melting point [°C] | Compound
194 to 201 | CC1(COc2ccc([N+](=O)[O-])cc2)CC(O)c2cc(O)c(C(C)(C)C)cc2O1 (centres undefined)
86 to 87 | CO[C@H]1O[C@@H](C)[C@@H]2C(=O)[C@H]3CCCC[C@@H]3C[C@H]12
240 to 248 | O=C(Nc1cccc(Cl)c1)Nc1cnnc(Cl)c1
104 to 106 | CCOC(=O)c1cc(C(=O)OCC)c2c(Cl)cc(Cl)cc2n1
190 to 192 | CS(=O)c1ccc(F)c(-c2nc3ncccc3[nH]2)c1 (centres undefined)
255 to 257 | O=C(O)C1CCc2c([nH]c3ccc(O)cc23)C1 (centres undefined)
217 to 219 | Nc1ncccc1-c1nc2cc(-c3cccnc3)cnc2n1-c1ccc(CNS(=O)(=O)c2ccccc2)cc1
101 to 103 | CCOC(=O)c1cnn(-c2cc(Cl)cc(Cl)c2)c1C#N
199 to 200 | O=C(O)CCCc1oc(-n2cnc3ccccc32)nc1-c1ccc(Cl)cc1
161 to 162 | Nc1cc(Cl)ccc1C(=O)NCC1CCN(C(c2ccccc2)c2ccccc2)CC1
116 | COC(=O)c1cc(-c2ccccc2)c(=O)n2c1-c1sccc1CC2
115 to 117 | NS(=O)(=O)c1cc(C(=O)OCC(=O)N2CCC(CO[N+](=O)[O-])CC2)c(NCc2ccco2)cc1Cl
172 | Cc1cccc(NC(=O)c2ccc3nc(NC4CCN(C)CC4)n(Cc4nc(C)ccc4O)c3c2)c1
282 | O=C(O)c1nn(-c2ccccc2)c2c1CCc1cc(Cl)ccc1-2
190 | CCOC(=O)c1c(C)nn(C)c1CS(=O)(=O)NC(=O)Nc1nc(OC)cc(OC)n1
168 to 169 | COc1cc(COc2nn(C)cc2C(N)=O)ccc1OCc1nc(-c2ccccc2)oc1C
159 to 161 | Cc1c(C)c2c(c(C)c1O)C(c1ccc(N3CCN(C)CC3)cc1)C(C)(C)O2 (centres undefined)
194 to 198 | CNS(=O)(=O)/C=C/c1cc(Cl)cnc1N

Further lines, the molecule ahead of its results:

Compound | melting point [°C]
COc1ccc(CC(=O)Nc2c(C)c(C)c3oc(C)c(-c4ccc(C(C)C)cc4)c3c2C)cc1 | 202 to 204
Cc1ccc(C(=C/C=C/C(=O)NCCCCc2cccnc2)c2ccc(C)cc2)cc1 | 144 to 146
Cn1cc(C2=C(c3cn(C4CCN(CC(F)(F)C(F)(F)C(F)(F)F)CC4)c4ccccc34)C(=O)NC2=O)c2ccccc21 | 231 to 234
O=C(O)c1ccc(Cl)cc1Nc1ccc(O)cc1 | 164 to 165
COc1cccc(C(=C/C=C/C(=O)O)c2cccc(OC)c2)c1 | 179 to 180
CCOC(=O)c1c(C)cc2c(c1C)c(=O)n(-c1ccccc1C(F)(F)F)c(=O)n2CCN1CCCCC1 | 144 to 145
CC1(C)OC(=O)Nc2ccc(-c3cc([N+](=O)[O-])cc([N+](=O)[O-])c3)cc21 | 297 to 298
O=S(=O)(O)NCc1cc(I)cc(I)c1O | 168 to 170
CCCCOc1c(CN2C(=O)c3ccccc3C2=O)n(CC(C)(C)C)c(=O)c2ccc(F)cc12 | 162 to 164
COc1ccc(NC(C)=O)cc1F | 120
O=C(CSc1ccc(C(F)(F)F)cc1C(=O)O)c1ccccc1 | 128 to 130
O=C1NCCNN1c1cc(Cl)c(Sc2ccc(Cl)cc2)c(Cl)c1 | 242 to 243
CC(C)(Oc1ccc([Si](C)(C)C)cc1)C(=O)O | 92 to 93
NCc1[nH]c2cc(Br)c(Cl)cc2c1-c1ccccc1 | 162 to 163
O=C(OCCCCCCc1ccc(OCc2ccc(Cl)cc2)cc1)c1cccnc1 | 66 to 67
O=S(c1ccccc1)c1ccc2c(c1)C(O)C(Br)CCO2 (centres undefined) | 147 to 149
CCOC(=O)c1cc(C)n(-c2cccc(C(=O)O)c2)c1-c1ccccc1 | 161 to 163
CN(C)C=C(C#N)C(=O)c1ccco1 | 117 to 125
O=S(=O)(Nc1ccc2c(OCc3cccc(-c4ccc(F)cc4)n3)cccc2c1)C(F)(F)F | 173 to 174
Cc1cc(SC2CC(=O)N(c3ccccc3)C2=O)cc(C(C)(C)C)c1N (centres undefined) | 126 to 128
COC(=O)c1ccc(Oc2cc3c(cc2C)C(C)(C)CCC3(C)C)cc1 | 133 to 135
N#CCCNCCCC(=O)O | 122 to 124

Compound | melting point [°C]
Cc1ccc(N=c2ccn3ccccc3c2)cc1C | 185 to 187
Cc1cccc(-c2ccc3c(c2)c2c(n3Cc3ccc(C(C)(C)C)cc3)COC(=O)C2=O)c1 | 196 to 197
CC(C)CC(N)C(=O)NC(=O)N(CCCl)N=O (racemic) | 82 to 84
CCOc1ccc(CN2C(=O)SC(S(=O)(=O)c3ccc(C)cc3)C2=O)c(OCC)c1 (centres undefined) | 121 to 123
O=[N+]([O-])c1cc(F)ccc1Sc1ccccc1 | 66 to 67
COc1cccc(C=NNc2ncc(COc3cccc(C(=O)Nc4ccc(C(C)C)c(C)c4)c3)c3ccccc23)c1 | 125 to 129
N#Cc1ccc(Nc2nc(Oc3c(Br)cc(C=O)cc3Br)ccc2[N+](=O)[O-])cc1 | 218 to 220
CC(C)N(CCOc1ccc2oc3ccc(OCCN(C(C)C)C(C)C)cc3c2c1)C(C)C | 47 to 49
CC(O)(C=Cc1ccc(S(=O)(=O)N2CCCC2)cc1)C(F)(F)F (centres undefined) | 119 to 121
COc1ccc2c(c1)CCc1cc(OC)ccc1N2 | 123 to 124
CN(Cc1ccc(NC(=O)C2=Cc3cc(-c4ccc5c(c4)OCCO5)ccc3S(=O)(=O)CC2)cc1)C1CCOCC1 | 248 to 251
Cc1cc(I)cc(C=O)c1N | 134
CCCC[C@H](NC(=O)OC(C)(C)C)C(=O)CSCc1ccsc1 | 43 to 45
COc1ccc2c(=O)n(S(=O)(=O)c3ccc(Cl)cc3)c(=O)[nH]c2c1 | 205 to 206
Cc1cccc2c1N(CC(=O)N1CC3CCC(CC3)C1)C(=O)C(NC(=O)Nc1cccc(Cl)c1)N=C2c1ccccc1F (centres undefined) | > 250
O=C(O)CCCCCCCCCCc1ccc(F)cc1F | 56
CC(C)(CCCc1cccnc1)NC(=O)C=CC=C(c1cccc(F)c1)c1cccc(F)c1 | 135 to 136
CCOC(=O)[C@H](COCc1ccccc1)NC(=O)C(C)(C)NC(=O)[C@@H](SC(C)=O)C(C)C | 55 to 57
COc1ccc2c(c1O)CC(C(=O)O)N(C(=O)N(C)c1ccccc1)C2 (racemic) | 235 to 255
CCN(CCCc1ccccc1)[C@H]1CC[C@H](c2ccc(O)cc2)CC1 | 163 to 166
Cc1ccc(S(=O)(=O)ON=C(C#N)c2ccc(F)cc2)cc1 | 129 to 140
